We go through three substances from patent US6599501B1, “Immunomodulators” (Steeno Research Group A/S, priority 1994, dated 2003).

Common to all, as to type: cell-based
The subject of series [1] is spontaneous IL-8 production by human monocytes. Briefly: Spontaneous IL-8 production by purified cultured human monocytes (IL-8 ELISA). To be noted: any concentration of IT9302 between 0.1 and 1000 ng/ml; this and following examples.
In series [2] the test system is IL-1β induced IL-8 production by human peripheral blood mononuclear cells (PBMC). Briefly: IL-1β induced IL-8 production by human peripheral blood mononuclear cells (IL-8 ELISA). To be noted: r-hIL-1β 1 ng/ml; 48 hours total incubation. On the procedure:
PBMC was purified from heparinized blood of normal human donors. Following gradient centrifugation with-Lymphoprep™ (Nycomed Pharma, Oslo, Norway), the mononuclear cells were diluted to 2×10^6 cells/ml in LPS-free RPMI 1640 medium (Gibco Cat.No. 6187-010) containing 1% sterile filtered heat-inactivated fetal calf serum and penicillin (10,000 IE/ml), streptomycin (10 mg/ml) and gentamycin (2.5 mg/ml). Cells were cultured in 24 wells Nunc Micro Plates (Nunc, Denmark) and in the presence of different concentration of IT9302 (0, 1 μg, 100 ng, 10 ng, 1 ng, 0.1 ng, 0.01 ng/ml) for 24 hours. Following 24 hours of incubation, another dose of IT9302 was added once more, and 1 hour later r-hIL-1β (1 ng/ml) was added to the cell cultures. Supernatants were collected after a total of 48 hours of incubation, and the concentration of the secreted IL-8 was measured by IL-8 ELISA by using an IL-8 ELISA Kit (Dainippon Pharmaceutical Co. Ltd, Osaka, Japan). Briefly, standards and cell supernatants were incubated for one hour and in duplicates at 20° C. on a micro-plate shaker. Then after washing, a second antibody was added for one hour, followed by one hour of incubation with peroxidase-labelled goat anti-rabbit IgG. […] Optical density (OD) was measured in an ELISA reader at 490 nm. IL-8 concentration was calculated by a calibration curve of absorbance of unknown vs concentrations of IL-8 standards. […]
In general terms: An ELISA detects its analyte on a solid surface through an enzyme-linked reagent.

The test system of series [3] is IRAP production by human monocytes. Nature of the series: Production of interleukin-1 receptor antagonist protein (IRAP) by human monocytes (IRAP ELISA). The following applies: monocytes stimulated 24 hours. The procedure:
PBMC was purified as described above. PBMC was cultured in RMPI 1640, 10% sterile heat-inactivated fetal calf serum (including penicillin 10,000 IE/ml, streptomycin 10 mg/ml, gentamycin 2.5 mg/ml) and the cell concentration was 5×10^6 cells/ml. The monocytes were then purified by standard plastic adherence technique. Monocytes were then cultured in RPMI 1640 with 2% FCS (2.5×10^6 cells/ml) and with different dilutions of rhIL-10 or IT9302. The cells were stimulated for 24 hours and the supernatants were collected for IRAP determination. IRAP ELISA was carried out by using Human IL-1ra Quantikin Immunoassay Kit from R&D Systems Europe Ltd. (Cat.No. DRA 00, Abingdon, Oxon, UK).
The test was performed as described in “Determination of IRAP concentration”.

For series [4], the system named is IL-4 production by cultured normal human CD4+ T cells. Nature of the series: IL-4 production by CD4+ T lymphocytes (ECL-Western blotting). The following applies: 100 ng/ml, 3 days, cytosolic fractions. On the procedure:
CD4+ T lymphocytes were purified from heparinized normal human blood. Following Lymphoprep™ (Nycomed Pharma, Oslo, Norway) gradient centrifugation, the mononuclear cells were further sorted at 4° C. using Dynabeads (Dynal AS, Norway) coated with monoclonal anti-CD4 antibodies. The beads were detached by adding polyclonal anti-mouse antibody (Dynal AS, Norway). The purity of the positively selected cells were higher than 99% as judged by FACS analysis. […]
Cells or freeze-dried cell culture supernatants were used for IL-4 protein content determination. […] The blots were then incubated with a polyclonal goat anti-human IL-4 antibody (R&D Systems, UK) followed by a horseradish peroxidase-labelled secondary antibody (Cat.no. RPN 2106 ECL, Amersham, UK), and the immunostaining was detected by exposing a film (Kodak X-OMAT-S, USA) for 90 seconds.
Thus, CD4+ T cells, purified as described in “Methods for T cell chemotaxis”, and cultured as described in the section “Determination of IL-4 production by CD4+ T lymphocytes”, were stimulated for 3 days with IT9302 (10 ng/ml) or IL-10 (100 ng/ml). Cytosolic fractions were collected and analyzed for their IL-4 content using Western blotting (FIG. 11) and a goat anti-human IL-4 polyclonal antibody.

Series [5] concerns class II MHC molecule expression on human monocytes. Briefly: Class II MHC antigen expression on monocytes (rosetting with HLA class II Dynabeads). The procedure:
PBMC was purified as described above and monocytes isolated by plastic adherence technique. Monocytes were then cultured in RPMI 1640 with 2% FCS including penicillin 10,000 IE/ml, streptomycin 10 mg/ml, gentamycin 2.5 mg/ml at a cell concentration of 3×10^6/ml. Cells were stimulated for 40 hours in microwells (Nunc, Denmark) with 100 ng/ml rhIL-10, or IT9302 1 μg/ml, 100 ng/ml, 10 ng/ml. At the end of stimulation, the supernatants were removed and the cells were detached from the plastic by freezing at −20° C. for 20 minutes. The cells were collected in 1 ml of cold HBSS with 1% FCS and sorted at 20° C. by using 50 μl/ml Dynabeads M 450 coated with monoclonal antibody for HLA class II β chain (Cat. No. 210.03). After 20 minutes of incubation, the cells were washed 3 times with cold HBSS with 1% FCS and collected on a magnetic separation device. The cells were diluted in the above buffer and stained with methylene blue, and the resetting cells (cells carrying Dynabeads with HLA class II mAb) were counted.

For “H-AYMTMKIRN-OH [IT9302, NH2-Ala-Tyr-Met-Thr-Met-Lys-Ile-Arg-Asn-COOH]”, in series [1], the “effect on viability of cells” value is “did not in this or in the following examples affect viability”.
For “NH2-Ser-Pro-Gly-Gln-Gly-Thr-Gln-Ser-Glu-COOH (H-SPGQGTQSE-OH) [IT9301, nonapeptide from the N-terminal end of hIL-10, control for negative results]”, in series [2], the “inhibition of IL-1β induced production of IL-8” value is “did not induce any inhibition at all”.
Consider “rhIL-10: Recombinant human interleukin 10 obtained from Pepro Tech Inc.”, for which the “induction of IRAP production” value in series [3] is listed as “induction of IRAP”. Besides, the “production of IL-4 by CD4+ T cells” value in series [4] is “induce the production of IL-4”. In addition, the “inhibition of class II MHC expression” value in series [5] (40 hours stimulation) is listed as “inhibits class II MHC expression”. The “Number of rosetting monocytes” value in series [5] (stimulation 100 ng/ml, 40 hours) is recorded as 4.6 ± 1.4 × 10^4.
